According to BigSolDB 2.1:

Nc1cccc2c1CN(C1CCC(=O)NC1=O)C2=O (stereo not given)
solubility (mole fraction)
Settings | 293.15 K | 298.15 K | 303.15 K | 308.15 K | 313.15 K | 318.15 K | 323.15 K | 328.15 K | 333.15 K
in acetonitrile | 0.000539 | 0.000549 | 0.000561 | 0.000573 | 0.000588 | 0.000603 | 0.000618 | 0.000634 | 0.000652
in ethanol | 0.000164 | 0.000183 | 0.000209 | 0.000238 | 0.00027 | 0.000309 | 0.000357 | 0.000404 | 0.00046
in ethyl acetate | 0.000127 | 0.000144 | 0.000164 | 0.000184 | 0.00021 | 0.000239 | 0.000277 | 0.000319 | 0.000367
in isopropanol | 6.37e-05 | 7.79e-05 | 9.5e-05 | 0.000116 | 0.000141 | 0.000168 | 0.000195 | 0.000231 | 0.000271
in methanol | 0.000252 | 0.000269 | 0.000288 | 0.000309 | 0.000332 | 0.000359 | 0.000394 | 0.000434 | 0.00048
